Experimental data: patent publication US20140011755A1, “Cardiac Glycosides for Treating Autoimmune Disease” (Department of Veterans Affairs, priority 2010, published 2014)

Experiments:
MRL-Ipr splenic B cells = experiment: ANA production by MRL-Ipr splenic B cells in vitro; assay type: cell-based, mice; details: 2×10^5 vehicle-treated MRL-Ipr splenic B cells, 33 nM
[1] = tested on: splenocytes derived from mice with CIA; experiment: CIA splenocyte proliferation (3H-thymidine incorporation); assay type: cell-based
Method: (§1) Activity was monitored by ^3H-thymidine incorporation as a read-out for proliferation. […] Cell type(s) in the splenocyte population responsive to therapeutic concentrations of cardiac glycoside were determined by identifying the population of cells that responded to a dose-dependent decrease in activity in the presence of stimulant, defined as ligand(s) binding to cognate receptor(s). Activity was analyzed by: ^3H-thymidine or BrdU incorporation to monitor proliferation or by ELISA to monitor cytokine production. Splenic T lymphocytes were isolated by negative selection (MACS, Miltinyi Biotec) and are stimulated with PMA, ConA or through the TCR with anti-CD3/anti-CD28 Dynabeads (Invitrogen) and collagen II (all non-TNFR receptors/pathways). […] Peritoneal and bone marrow-derived macrophages were isolated from CIA mice in the presence of M-CSF growth factor and were stimulated with TNF and CD40 ligand (CD40L). […] Splenic B lymphocytes were isolated by negative selection (MACS, Miltinyi Biotec) and were stimulated with BAFF (BLyS), CD40L or through the BCR with anti-IgM u-chain specific antibodies.

T cell receptor = assay type: cell-based, mice; details: non-TNFR family member; therapeutic concentrations
Method: as §1

TNFR = assay type: cell-based, mice; details: pre-treatment with 3.3 or 33 nM
Method: as §1

CD40 = molecular target: T1, CD40 (Mus musculus, UniProt P27512); assay type: cell-based, mice; details: pre-treatment with 3.3 or 33 nM
T1 construct: Peritoneal and bone marrow-derived macrophages were isolated from CIA mice; endogenous in cells; host or cells: peritoneal and bone marrow-derived macrophages from CIA mice
T1 sequence (P27512 20-289): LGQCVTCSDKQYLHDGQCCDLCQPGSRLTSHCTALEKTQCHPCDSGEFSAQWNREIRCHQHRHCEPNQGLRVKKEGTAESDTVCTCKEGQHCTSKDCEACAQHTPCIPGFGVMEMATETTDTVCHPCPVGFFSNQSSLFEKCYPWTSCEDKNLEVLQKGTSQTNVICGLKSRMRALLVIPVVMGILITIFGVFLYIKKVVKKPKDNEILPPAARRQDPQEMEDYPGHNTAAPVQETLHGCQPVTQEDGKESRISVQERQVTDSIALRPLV
Method: as §1

TNF, IL-6 and IL-1beta = experiment: Serum cytokine ELISA in CIA treatment groups; assay type: in vivo; details: serum from 3 mice per treatment group, ELISA in triplicate
Description: FIG. 9. Serum cytokine levels are similar between vehicle and cardiac glycoside treatment groups. […] The unpaired student t-test was used to assess significance.

regulatory T cells = experiment: FACS of regulatory T cells in splenocytes of treated CIA mice; assay type: in vivo, DBA1/J mice; details: 0.3 mg/kg treated CIA mice, 4 mice per group
Method: FIG. 25. […] (A) Representative data from mixed lymphocyte studies. […] B cells were washed, replated in complete RPMI supplemented with BAFF (1 ng/mL), anti-CD3 antibody (4 μg/mL) and were added to 5×10^5 naïve CD4^+ T cells purified by MACS. Cells were incubated for 72 hr prior to harvest. IL-6, IL-10, TGFβ and IL-17 cytokine levels were measured by ELISA (R&D Systems, Peprotech, and eBiosciences). Data represent the average absorbance (A450) of triplicates and error bars represent the SEM. […] Cells were fixed in 4% paraformaldehyde for 15 minutes, washed twice with PBS and blocked with FACS buffer. Cells were stained for regulatory T cells using anti-TCRβ, anti-CD4, anti-CD25 and anti-FoxP3 antibodies (Cell Signaling Technologies, R&D Systems, AbCam). FACS was performed on the FACS Aria (Becton-Dickenson). Data represent the average population in 500,000 cells from 4 mice per treatment group. Error bars represent the SEM.
It is known that B cells can regulate T cell differentiation and in many states of autoimmune disease, an imbalance of Th1, Th2, and Th17 T cell populations exist. […] We performed studies to determine the regulatory effector function of B cells pre-treated with cardiac glycoside on T cell differentiation. […]

nuclear phospho-p65 = experiment: Western blot of nuclear phospho-p65 in CD40L-stimulated CIA B cells; assay type: cell-based, mice; details: 33 nM for 1 h, 50 ng/mL CD40L
Method: FIG. 8. […] Values represent mean light units produced. Error bars represent SEM, and statistical significance was determined by unpaired T-test. Single and double asterisks represent P-values of 0.01 or 0.001, respectively. […] Samples were harvested at designated time points and were fractionated into nuclear and cytoplasmic lysates (Pierce). Lysates were quantified using BCA (Pierce), and were equally loaded according to total protein. Membranes were probed for levels of nuclear phospho-p65 (ReIA), phospho-ReIB, and histone (histone served as loading control and fractionation method control) and cytoplasmic degradation of IκBα (beta-tubulin served as loading control and fractionation method control).
HeLa cells were co-transfected with the reporter pNFκB-luc and control vector pTAL (Renilla) for 18 h prior to incubation with 0-500 nM cardiac glycoside for 6 h. Cells are stimulated with 50 ng/mL TNF. […] FIG. 8 B).

[2] = Human, oral; Smith, TW (1970); cited from earlier work

C[C@H]1O[C@@H](O[C@H]2[C@@H](O)C[C@H](O[C@H]3[C@@H](O)C[C@H](O[C@H]4CC[C@@]5(C)[C@H](CC[C@@H]6[C@@H]5CC[C@]5(C)[C@@H](C7=CC(=O)OC7)CC[C@]65O)C4)O[C@@H]3C)O[C@@H]2C)C[C@H](O)[C@@H]1O [Digitoxin, digitoxin]
ANA production in vitro at 72 hours (MRL-Ipr splenic B cells): blockade of autoantibody production | proliferation of unstimulated or collagen II-stimulated splenocytes [1]: inhibits the proliferation | proliferation of T cells in response to stimulation through the T cell receptor (T cell receptor): did not alter proliferation | TNF-mediated activation of macrophage through TNFR (TNFR): inhibits | CD40L-mediated activation of macrophage through CD40 (CD40): inhibits | Serum cytokine levels (TNF, IL-6 and IL-1beta) versus vehicle (TNF, IL-6 and IL-1beta): similar | induction of regulatory T cells in vivo (regulatory T cells): induce regulatory T cells | amount of nuclear phospho-p65 following CD40L stimulation (nuclear phospho-p65): significantly reduced | Serum conc. [2]: 17 ng/mL
